Test results from PMC12073785, “Design, Synthesis and Biological Evaluation of 3-Hydrazonoindolin-2-one Derivatives as Novel HIV-1 RNase H Inhibitors” (Molecules, 2025).

Legend:
HIV-1 (strain IIIB) = assay: Anti-HIV-1 (strain IIIB) activity in MT-4 cells, MTT assay; assay type: cell-based; settings: protection of MT-4 cells against HIV-induced cytopathogenicity by 50%
Method: (§1) The anti-HIV-1 (strain IIIB) activity evaluation in MT-4 cells was conducted using an optimized MTT assay. The cell lines were obtained from the laboratory (Prof. Erik De Clercq, Rega Institute for Medical Research, KU Leuven, Herestraat 49, Leuven, Belgium). Compounds were serially diluted (5-fold increments, starting from 10× concentration) and dispensed into 96-well plates (25 µL/well) via an automated Biomek 3000 workstation (Beckman Instruments, Fullerton, CA, USA). Parallel experimental groups included virus-infected (50 µL HIV inoculum, 100–300 TCID50) and mock-infected controls (50 µL culture medium). MT-4 cells were centrifuged (220× g, 5 min), resuspended to 6 × 10⁵ cells/mL, and seeded (50 µL/well). After a 5-day incubation, cell viability was quantified by measuring mitochondrial dehydrogenase-mediated MTT-to-formazan conversion using dual-wavelength spectrophotometry (540 nm primary, 690 nm reference). The 50% cytotoxic concentration (CC50) was calculated from triplicate median absorbance values, representing the compound concentration reducing mock-infected cell viability by 50%.

MT-4 cells = assay: Cytotoxicity in mock-infected MT-4 cells, MTT assay; assay type: cell-based
Method: as §1

| Compound | EC50 (HIV-1 (strain IIIB)) | CC50 (MT-4 cells) |
| --- | --- | --- |
| O=C1Nc2ccc(Cl)cc2[C@@](C#CC2CC2)(C(F)(F)F)O1 [EFV, reference compound] | 3 nM | > 4590 nM |
| Cc1ccnc2c1NC(=O)c1cccnc1N2C1CC1 [NVP, reference compound] | 190 nM | > 15000 nM |
